Test results as given in ChEMBL document CHEMBL1201862, “PubChem BioAssay data set” (2004).
pIC50: −log10 of the molar value. Active and inactive are the calls of the source.

Columns and labels:
[1] = inhibitors of intracellular T. cruzi replication, confirmation, NIH3T3 host cells, beta-gal luminescence (AID 2044); assay type: functional, cell-based;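 further: intracellular parasites grown in NIH/3T3 mouse fibroblasts as host cells; luminescent beta-galactosidase reporter signal from transgenic T. cruzi replicating inside host cells; inhibitors lower the luminescence signal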
Paired box protein Pax-8 = Paired box protein Pax-8 (Homo sapiens, UniProt Q06710); test: inhibitors of PAX8-driven TPO luciferase reporter, dose response, RMG-I cells, cherry-pick (AID 687027); assay type: functional, cell-based;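 further: luciferase reporter driven by Pax8 target thyroperoxidase promoter measured by SteadyGlo luminescence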
[2] = control 3'UTR Renilla luciferase suppression, dose response, counter-screen for Shn3 inhibitor project, cell-based, Clone20-Shn3RL, cherry-picked (AID 624133); assay type: functional
[3] = HepG2 cell cytotoxicity, dose response, cytotoxicity control for Shn3 inhibitor project, CellTiter-Glo, cherry-picked (AID 624134); assay type: functional, cell-based
[4] = target: T1, Sphingosine 1-phosphate receptor 4 (Homo sapiens, UniProt O95977); test: Fluorescence dose response cell-based high throughput screening assay for antagonists of the Sphingosine 1-Phosphate Receptor 4 (S1P4). [Related pubchem assays: 1524 (Confirmation in triplicates.), 1510 (Primary screen.)]; assay type: functional
T1 sequence (O95977 whole entry): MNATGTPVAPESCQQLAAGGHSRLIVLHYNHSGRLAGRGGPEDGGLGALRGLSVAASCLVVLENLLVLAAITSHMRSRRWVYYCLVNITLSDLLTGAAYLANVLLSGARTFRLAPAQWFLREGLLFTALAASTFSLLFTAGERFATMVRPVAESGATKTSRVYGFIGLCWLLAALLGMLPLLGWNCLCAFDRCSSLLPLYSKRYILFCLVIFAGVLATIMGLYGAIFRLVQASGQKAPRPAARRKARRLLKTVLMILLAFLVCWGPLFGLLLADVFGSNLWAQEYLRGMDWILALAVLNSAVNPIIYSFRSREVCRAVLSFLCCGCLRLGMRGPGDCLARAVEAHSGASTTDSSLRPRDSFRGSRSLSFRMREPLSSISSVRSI

[5] = Shn3 3'UTR reporter inhibitors, dose response, cell-based, Clone20 osteoblasts, firefly luciferase, cherry-picked (AID 624132); assay type: functional;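 further: firefly luciferase luminescence from reporter carrying the Shn3 3'UTR in osteoblasts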
[6] = inhibitors of firefly luciferase expression or activity, dose response, H4 neuroglioma cells, luminescence (AID 1990); assay type: functional, cell-based
[7] = target: Kappa-type opioid receptor (Homo sapiens, UniProt P41145); assay type: functional
[8] = Luminescence Cell-Based Dose Response HTS to Identify Inhibitors of 5'UTR Stem-Loop Driven Prion Protein mRNA Translation in H4 Neuroglioblastoma Cells. [Related pubchem assays: 1827 (Project Summary), 1813 (Primary HTS)]; assay type: functional
[9] = target: T2, Microphthalmia-associated transcription factor (Homo sapiens, UniProt O75030); test: TRPM1 promoter luciferase signal decrease, dose response, MITF inhibitor project, cell-based, SK-MEL-5, cherry-picked, set 3 (AID 493073); assay type: functional
T2 sequence (O75030 whole entry): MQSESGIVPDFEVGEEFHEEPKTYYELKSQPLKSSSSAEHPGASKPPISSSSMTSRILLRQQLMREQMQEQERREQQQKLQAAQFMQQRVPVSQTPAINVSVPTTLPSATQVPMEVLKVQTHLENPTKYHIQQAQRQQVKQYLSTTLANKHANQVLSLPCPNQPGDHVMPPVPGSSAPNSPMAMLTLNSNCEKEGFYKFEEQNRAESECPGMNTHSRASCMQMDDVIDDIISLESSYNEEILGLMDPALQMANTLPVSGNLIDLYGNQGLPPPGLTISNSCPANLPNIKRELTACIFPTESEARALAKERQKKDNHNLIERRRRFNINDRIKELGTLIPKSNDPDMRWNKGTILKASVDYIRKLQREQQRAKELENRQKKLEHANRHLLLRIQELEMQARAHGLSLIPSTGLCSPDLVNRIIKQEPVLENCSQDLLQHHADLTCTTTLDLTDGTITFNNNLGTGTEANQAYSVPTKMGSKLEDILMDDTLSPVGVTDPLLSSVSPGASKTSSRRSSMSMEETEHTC

cells = assay type: functional, cell-based
INS1 = test: beta cell apoptosis inhibitors, cytokine rescue, dose response, luminescence, retest (AID 449756); assay type: functional, cell-based; details: Rattus norvegicus;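 further: cell death triggered by IL-1 beta plus TNF-alpha plus IFN-gamma mixture; protective hits raise ATP signal compared with cytokine alone wells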
[10] = Counterscreen for AddAB inhibitors: absorbance-based bacterial cell-based high throughput dose response assay for inhibitors of bacterial viability. [Related pubchem assays (depositor defined):AID435030, AID449728, AID449731, AID488942, AID488955, AID488956]; assay type: functional
[11] = target: Serine/threonine-protein phosphatase (Homo sapiens, UniProt Q9BPW0); test: PP5 phosphatase inhibitors, dose response, biochemical, fluorescence (AID 2395)
Sequence of Serine/threonine-protein phosphatase (Q9BPW0 whole entry): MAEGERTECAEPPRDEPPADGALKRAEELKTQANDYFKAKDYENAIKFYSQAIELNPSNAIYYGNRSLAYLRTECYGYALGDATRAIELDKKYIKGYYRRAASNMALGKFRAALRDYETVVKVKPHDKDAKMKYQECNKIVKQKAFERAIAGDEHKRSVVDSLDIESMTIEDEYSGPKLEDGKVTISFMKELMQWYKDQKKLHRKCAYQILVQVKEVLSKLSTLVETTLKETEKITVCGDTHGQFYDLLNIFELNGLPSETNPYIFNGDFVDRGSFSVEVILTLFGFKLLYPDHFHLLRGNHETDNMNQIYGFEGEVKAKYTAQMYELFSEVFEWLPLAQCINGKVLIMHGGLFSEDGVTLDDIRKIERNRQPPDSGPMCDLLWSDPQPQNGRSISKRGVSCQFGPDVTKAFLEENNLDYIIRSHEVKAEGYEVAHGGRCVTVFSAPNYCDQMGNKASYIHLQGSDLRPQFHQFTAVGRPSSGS

Sequence of Paired box protein Pax-8 (Q06710 whole entry): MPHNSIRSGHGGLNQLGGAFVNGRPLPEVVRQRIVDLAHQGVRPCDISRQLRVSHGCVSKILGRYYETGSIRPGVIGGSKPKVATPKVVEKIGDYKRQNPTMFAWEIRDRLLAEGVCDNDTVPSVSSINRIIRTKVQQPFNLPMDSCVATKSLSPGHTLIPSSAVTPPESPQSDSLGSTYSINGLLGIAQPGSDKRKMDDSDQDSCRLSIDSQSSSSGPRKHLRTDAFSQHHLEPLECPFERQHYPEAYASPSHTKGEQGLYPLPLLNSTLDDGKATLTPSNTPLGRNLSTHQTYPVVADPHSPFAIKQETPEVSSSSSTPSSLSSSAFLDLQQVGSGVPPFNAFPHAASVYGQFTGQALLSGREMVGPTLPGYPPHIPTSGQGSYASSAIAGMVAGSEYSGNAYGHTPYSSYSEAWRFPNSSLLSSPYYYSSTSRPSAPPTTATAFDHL
Sequence of Kappa-type opioid receptor (P41145 whole entry): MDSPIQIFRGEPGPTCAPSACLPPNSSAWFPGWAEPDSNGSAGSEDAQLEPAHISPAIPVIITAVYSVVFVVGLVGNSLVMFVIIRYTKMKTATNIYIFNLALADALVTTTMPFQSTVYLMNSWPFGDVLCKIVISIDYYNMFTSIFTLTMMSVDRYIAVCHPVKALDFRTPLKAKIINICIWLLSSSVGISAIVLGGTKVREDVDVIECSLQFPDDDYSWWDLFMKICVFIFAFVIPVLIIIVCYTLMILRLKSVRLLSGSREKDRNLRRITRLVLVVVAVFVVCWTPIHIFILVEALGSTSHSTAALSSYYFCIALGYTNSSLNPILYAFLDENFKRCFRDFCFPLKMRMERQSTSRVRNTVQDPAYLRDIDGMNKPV

Which EC50 [1] does the source give for `COc1cc(NC(=O)Cn2ncc(Cl)c(Cl)c2=O)c(C)cc1[N+](=O)[O-]` here?
The EC50 was 2.39 µM (active).

And the AC50 (Paired box protein Pax-8)?
The AC50 was 4.62 µM (active).

What about the AC50 [2] of the same compound?
Its AC50 is 3.3 µM (active).

And the AC50 [3]?
The AC50 was 40.9 µM (active).

What about the IC50 [4] of the same compound?
The IC50 was 1.32 µM (active).

What about the AC50 [5] of the same compound?
The AC50 was 3.44 µM (active).

And the EC50 [6]?
The EC50 was 8.09 µM (active).

And the pIC50 [7]?
The pIC50 was 4.86.

And the EC50 [8]?
Its EC50 is 9.83 µM (active).

With `Cc1ccc(C)c(S(=O)(=O)N2CCN(Cc3ccc(O)c4ncccc34)CC2)c1` as the compound, how does the AC50 [2] read?
Its AC50 is 1.23 µM (active).

And the AC50 [9]?
The AC50 was 4.44 µM (active).

What about the AC50 [3] of the same compound?
The AC50 was 5.3 µM (active).

What about the AC50 [5] of the same compound?
Its AC50 is 2.84 µM (active).

What about the EC50 (cells) of the same compound?
Its EC50 is 7.58 µM (active).

What about the AC50 (INS1) of the same compound?
The AC50 was 2.48 µM (active).

What about the IC50 [10] of the same compound?
The IC50 was > 119 µM (inactive).

With `Oc1ccc(/C=N\Nc2cc(N3CCOCC3)nc(N3CCOCC3)n2)c(O)c1` as the compound, how does the IC50 [11] read?
Its IC50 is 5.72 µM (active).

What about the AC50 (Paired box protein Pax-8) of the same compound?
The AC50 was 20.4 µM (active).
